{
  "source": "ChEMBL document CHEMBL5370539",
  "about": "“Oxazole-4-carboxamide/butylated hydroxytoluene hybrids with GSK-3β inhibitory and neuroprotective activities against Alzheimer's disease” (Eur J Med Chem, 2023)",
  "key": {"PC-12 [1]": {"tested_on": "PC-12", "assay": "Anti-apoptotic activity against H2O2-induced apoptosis in rat PC12 cells assessed as early apoptotic cells at 5 uM preincubated for 12 hrs followed by replacement with fresh media and H2O2 stimulation for 12 hrs by Annexin-V/7-AAD staining based flow cytometry (Rvb=0.8%)", "assay_type": "functional"}, "PC-12 [2]": {"tested_on": "PC-12", "assay": "Anti-apoptotic activity against H2O2-induced apoptosis in rat PC12 cells assessed as living cells at 10 uM preincubated for 12 hrs followed by replacement with fresh media and H2O2 stimulation for 12 hrs by Annexin-V/7-AAD staining based flow cytometry (Rvb=92.9%)", "assay_type": "functional"}, "[3]": {"target": "T1, Glycogen synthase kinase-3 beta (Homo sapiens, UniProt P49841)", "assay": "Inhibition of human GSK-3beta overexpressed in human HEK293T cells assessed as reduction in GSK-3beta expression level at 0.625 to 10 uM incubated for 24 hrs by Western blot analysis", "assay_type": "cell-based", "settings": "dose 0.625-10 µM"}, "PC12 [4]": {"tested_on": "PC12", "assay": "Activation of Nrf2-ARE pathway in rat PC-12 cells assessed as increase in TrxR1 expression level at 2.5 to 10 uM incubated for 6 hrs by Western blot analysis", "assay_type": "cell-based", "settings": "filed as activator, dose 2.5-10 µM"}, "PC12 [5]": {"tested_on": "PC12", "assay": "Activation of Nrf2-ARE pathway in rat PC-12 cells assessed as increase in Nrf2 expression level in cytoplasm at 10 uM incubated for 3 hrs by Western blot analysis", "assay_type": "cell-based", "settings": "filed as activator"}, "[6]": {"target": "T1, Glycogen synthase kinase-3 beta", "assay": "Inhibition of recombinant human GSK-3beta using YRRAAVPPSPSLSRHSSPHQ(pS)EDEE as substrate preincubated for 15 mins followed by substrate addition and measured after 60 mins by Kinase-Glo luminescent kinase assay"}, "PC-12 [7]": {"tested_on": "PC-12", "assay": "Neuroprotective activity against rat PC12 cells assessed as decrease in H2O2-induced mitochondrial membrane potential level at 10 uM preincubated for 12 hrs followed by replacement with fresh media and H2O2 stimulation for 12 hrs by JC-1 dye based flow cytometry (Rvb=95.3%)", "assay_type": "functional", "design": "scale not given: the % may be the effect or the level left"}, "PC-12 [8]": {"tested_on": "PC-12", "assay": "Cytotoxicity against rat PC12 cells assessed as cell viability at 6.25 to 100 uM incubated for 24 hrs by MTT assay", "assay_type": "toxicity, cell-based", "settings": "pc-12, 24 h, dose 6.25-100 µM"}, "PC-12 [9]": {"tested_on": "PC-12", "assay": "Neuroprotective activity against H2O2-induced cytotoxicity in rat PC12 cells assessed as increase in cell viability at 10 uM preincubated for 12 hrs followed by replacement with fresh media and H2O2 stimulation for 12 hrs by MTT assay", "assay_type": "functional, cell-based"}, "PC-12 [10]": {"tested_on": "PC-12", "assay": "Neuroprotective activity against rat PC12 cells assessed as decrease in H2O2-induced mitochondrial membrane potential level at 5 uM preincubated for 12 hrs followed by replacement with fresh media and H2O2 stimulation for 12 hrs by JC-1 dye based flow cytometry (Rvb= 95.3%)", "assay_type": "functional", "design": "scale not given: the % may be the effect or the level left"}, "Mus musculus [11]": {"tested_on": "Mus musculus", "assay": "Antialzheimer activity in okadaic acid-induced cognitive impairment ICR mouse model assessed as increase in number of groups crossing virtual platform at 0.08 to 0.24 mg/kg, iv twice at 3days interval before and after okadaic acid stimulation measured upto 14 days by Morris water maze test relative to control", "assay_type": "functional, organism-based", "settings": "dose 0.08-0.24 mg/kg, time <= 14.0 day"}, "PC-12 [12]": {"tested_on": "PC-12", "assay": "Anti-apoptotic activity against H2O2-induced apoptosis in rat PC12 cells assessed as early apoptotic cells at 2.5 uM preincubated for 12 hrs followed by replacement with fresh media and H2O2 stimulation for 12 hrs by Annexin-V/7-AAD staining based flow cytometry (Rvb=0.8%)", "assay_type": "functional"}, "Mus musculus [13]": {"tested_on": "Mus musculus", "assay": "Antialzheimer activity in okadaic acid-induced cognitive impairment ICR mouse model assessed as path tracing at 0.08 to 0.24 mg/kg, iv twice at 3days interval before and after okadaic acid stimulation measured upto 14 days by Morris water maze test relative to control", "assay_type": "functional, organism-based", "settings": "dose 0.08-0.24 mg/kg, time <= 14.0 day"}, "L02": {"tested_on": "L02", "assay": "Cytotoxicity against human L02 cells assessed as cell viability at 6.25 to 100 uM incubated for 24 hrs by MTT assay", "assay_type": "toxicity, cell-based", "settings": "l02, 24 h, dose 6.25-100 µM"}, "PC-12 [14]": {"tested_on": "PC-12", "assay": "Anti-apoptotic activity against H2O2-induced apoptosis in rat PC12 cells assessed as dead cells at 10 uM preincubated for 12 hrs followed by replacement with fresh media and H2O2 stimulation for 12 hrs by Annexin-V/7-AAD staining based flow cytometry (Rvb=4.1%)", "assay_type": "functional"}, "PC-12 [15]": {"tested_on": "PC-12", "assay": "Neuroprotective activity against rat PC12 cells assessed as decrease in H2O2-induced mitochondrial membrane potential level at 2.5 uM preincubated for 12 hrs followed by replacement with fresh media and H2O2 stimulation for 12 hrs by JC-1 dye based flow cytometry (Rvb= 95.3%)", "assay_type": "functional", "design": "scale not given: the % may be the effect or the level left"}, "PC-12 [16]": {"tested_on": "PC-12", "assay": "Neuroprotective activity against rat PC12 cells assessed as decrease in H2O2-induced intracellular Ca2+ level at 5 uM preincubated for 12 hrs followed by replacement with fresh media and H2O2 stimulation for 12 hrs by Fluo-3 AM based flow cytometry relative to control", "assay_type": "functional", "design": "scale not given: the % may be the effect or the level left"}, "[17]": {"assay": "Toxicity in okadaic acid-induced cognitive impairment ICR mouse model assessed as swimming speed change at 0.08 to 0.24 mg/kg, iv twice at 3days interval before and after okadaic acid stimulation measured for 5 days by Morris water maze test", "assay_type": "organism-based", "settings": "in vivo, 120 h, dose 0.08-0.24 mg/kg, time 5 day"}, "PC-12 [18]": {"tested_on": "PC-12", "assay": "Anti-apoptotic activity against H2O2-induced apoptosis in rat PC12 cells assessed as late apoptotic cells at 10 uM preincubated for 12 hrs followed by replacement with fresh media and H2O2 stimulation for 12 hrs by Annexin-V/7-AAD staining based flow cytometry (Rvb=2.2 %)", "assay_type": "functional"}, "PC12 [19]": {"tested_on": "PC12", "assay": "Activation of Nrf2-ARE pathway in rat PC-12 cells assessed as increase in Nrf2 expression level in nucleus at 10 uM incubated for 3 hrs by Western blot analysis", "assay_type": "cell-based", "settings": "filed as activator"}, "PC-12 [20]": {"tested_on": "PC-12", "assay": "Anti-apoptotic activity against H2O2-induced apoptosis in rat PC12 cells assessed as late apoptotic cells at 5 uM preincubated for 12 hrs followed by replacement with fresh media and H2O2 stimulation for 12 hrs by Annexin-V/7-AAD staining based flow cytometry (Rvb=2.2 %)", "assay_type": "functional"}, "PC-12 [21]": {"tested_on": "PC-12", "assay": "Anti-apoptotic activity against H2O2-induced apoptosis in rat PC12 cells assessed as dead cells at 2.5 uM preincubated for 12 hrs followed by replacement with fresh media and H2O2 stimulation for 12 hrs by Annexin-V/7-AAD staining based flow cytometry (Rvb=4.1%)", "assay_type": "functional"}, "PC12 [22]": {"tested_on": "PC12", "assay": "Activation of Nrf2-ARE pathway in rat PC-12 cells assessed as increase in GCLM expression level at 2.5 to 10 uM incubated for 24 hrs by Western blot analysis", "assay_type": "cell-based", "settings": "filed as activator, dose 2.5-10 µM"}, "Mus musculus [23]": {"tested_on": "Mus musculus", "assay": "Antialzheimer activity in okadaic acid-induced cognitive impairment ICR mouse model assessed as increase of search time in target quadrant at 0.08 to 0.24 mg/kg, iv twice at 3days interval before and after okadaic acid stimulation measured upto 14 days by Morris water maze test relative to control", "assay_type": "functional, organism-based", "settings": "dose 0.08-0.24 mg/kg, time <= 14.0 day"}, "Mus musculus [24]": {"tested_on": "Mus musculus", "assay": "Antialzheimer activity in okadaic acid-induced cognitive impairment ICR mouse model assessed as reduction in escape time at 0.08 to 0.24 mg/kg, iv twice at 3days interval before and after okadaic acid stimulation measured upto 14 days by Morris water maze test relative to control", "assay_type": "functional, organism-based", "settings": "dose 0.08-0.24 mg/kg, time <= 14.0 day"}, "PC-12 [25]": {"tested_on": "PC-12", "assay": "Anti-apoptotic activity against H2O2-induced apoptosis in rat PC12 cells assessed as dead cells at 5 uM preincubated for 12 hrs followed by replacement with fresh media and H2O2 stimulation for 12 hrs by Annexin-V/7-AAD staining based flow cytometry (Rvb=4.1%)", "assay_type": "functional"}, "PC-12 [26]": {"tested_on": "PC-12", "assay": "Anti-apoptotic activity against H2O2-induced apoptosis in rat PC12 cells assessed as late apoptotic cells at 2.5 uM preincubated for 12 hrs followed by replacement with fresh media and H2O2 stimulation for 12 hrs by Annexin-V/7-AAD staining based flow cytometry (Rvb=2.2 %)", "assay_type": "functional"}},
  "note": "Active and inactive are the calls of the source. No cut-off for these calls is given here.",
  "data": [
    {"smiles": "COc1ccc(-c2ocnc2C(=O)NCCCc2ccc(NC(=O)/C=C/c3cc(C(C)(C)C)c(O)c(C(C)(C)C)c3)cc2)cc1Cl", "values": [
      {"measurement": "Activity", "setting": "PC-12 [1]", "value": 1.5, "unit": "%"},
      {"measurement": "Activity", "setting": "PC-12 [2]", "value": 90.7, "unit": "%"},
      {"measurement": "inhibition", "setting": "[3]", "value": "Dose-Dependent Effect"},
      {"measurement": "Activity", "setting": "PC12 [4]", "value": "Dose-Dependent Effect"},
      {"measurement": "Activity", "setting": "PC12 [5]", "value": "Active"},
      {"measurement": "IC50", "setting": "[6]", "value": 0.25, "unit": "nM"},
      {"measurement": "Activity", "setting": "PC-12 [7]", "value": 81.3, "unit": "%"},
      {"measurement": "Activity", "setting": "PC-12 [8]", "value": "Non-Toxic"},
      {"measurement": "Activity", "setting": "PC-12 [9]", "value": "Active"},
      {"measurement": "Activity", "setting": "PC-12 [10]", "value": 72.6, "unit": "%"},
      {"measurement": "Activity", "setting": "Mus musculus [11]", "value": "Active"},
      {"measurement": "Activity", "setting": "PC-12 [12]", "value": 5.5, "unit": "%"},
      {"measurement": "Activity", "setting": "Mus musculus [13]", "value": "Active"},
      {"measurement": "Activity", "setting": "L02", "value": "Non-Toxic"},
      {"measurement": "Activity", "setting": "PC-12 [14]", "value": 1.3, "unit": "%"},
      {"measurement": "Activity", "setting": "PC-12 [15]", "value": 68.4, "unit": "%"},
      {"measurement": "Activity", "setting": "PC-12 [16]", "value": 28.4, "unit": "%"},
      {"measurement": "Activity", "setting": "[17]", "value": "Non-Toxic"},
      {"measurement": "Activity", "setting": "PC-12 [18]", "value": 6, "unit": "%"},
      {"measurement": "Activity", "setting": "PC12 [19]", "value": "Active"},
      {"measurement": "Activity", "setting": "PC-12 [20]", "value": 12.9, "unit": "%"},
      {"measurement": "Activity", "setting": "PC-12 [21]", "value": 1.3, "unit": "%"},
      {"measurement": "Activity", "setting": "PC12 [22]", "value": "Dose-Dependent Effect"},
      {"measurement": "Activity", "setting": "Mus musculus [23]", "value": "Active"},
      {"measurement": "Activity", "setting": "Mus musculus [24]", "value": "Dose-Dependent Effect"},
      {"measurement": "Activity", "setting": "PC-12 [25]", "value": 2.5, "unit": "%"},
      {"measurement": "Activity", "setting": "PC-12 [26]", "value": 16.4, "unit": "%"}
    ]}
  ]
}
